Broadly, the MIC is the smallest concentration in the dilution series that meets the test's criterion for growth inhibition.

26 compounds from ChEMBL document CHEMBL1208728, “Design, synthesis, and structure-activity relationships of pyrazole derivatives as potential FabH inhibitors” (Bioorg Med Chem Lett, 2010) can be followed below.

The structures appear in SMILES notation. Values after ≈ are worked out from the molar mass of the structure shown.

What all share (type): functional
Assay [1] deals with Enterobacter cloacae. The assay can be described thus: Antimicrobial activity against Enterobacter cloacae ATCC 13047 by MTT assay. For orientation: Tetrazolium dyes change colour on reduction, which living cells bring about.
In assay [2] the test system is Pseudomonas aeruginosa. The assay can be described thus: Antimicrobial activity against Pseudomonas aeruginosa ATCC 13525 by MTT assay.
The subject of assay [3] is Bacillus subtilis. The assay can be described thus: Antimicrobial activity against Bacillus subtilis ATCC 6633 by MTT assay.
Assay [4] relates to Escherichia coli. The assay can be described thus: Antimicrobial activity against Escherichia coli ATCC 35218 by MTT assay.
Assay [5] relates to Enterococcus faecalis. The assay can be described thus: Antimicrobial activity against Streptococcus faecalis ATCC 9790 by MTT assay.
Assay [6] deals with Staphylococcus aureus. The assay can be described thus: Antimicrobial activity against Staphylococcus aureus ATCC 6538 by MTT assay.

Consider `COc1ccc(C2CC(c3ccc(Cl)cc3)=NN2C(C)=O)cc1` (stereo unspecified), for which the MIC in assay [1] is above 50 µg/mL; in assay [2], 25 µg/mL (≈ 76 µM); in assay [3], 12.5 µg/mL (≈ 38 µM); in assay [4], 25 µg/mL (≈ 76 µM); in assay [5] it was 25 µg/mL (≈ 76 µM); in assay [6], above 50 µg/mL.

Regarding `CC(=O)N1N=C(c2ccc(C)c(C)c2)CC1c1ccc(Br)cc1` (stereo unspecified), the MIC in assay [1] was determined as 3.12 µg/mL (≈ 8.42 µM); in assay [2], 12.5 µg/mL (≈ 33.7 µM); in assay [3], 25 µg/mL (≈ 67.3 µM); in assay [4], 25 µg/mL (≈ 67.3 µM); in assay [5] it was 50 µg/mL (≈ 135 µM); in assay [6] it was 12.6 µg/mL (≈ 33.9 µM).

In the case of `CC(=O)N1N=C(c2ccccc2F)CC1c1ccccc1` (stereo unspecified), the MIC in assay [1] was above 50 µg/mL; in assay [2], 25 µg/mL (≈ 88.6 µM); in assay [3] it was 12.5 µg/mL (≈ 44.3 µM); in assay [4] it was above 50 µg/mL; in assay [5], 25 µg/mL (≈ 88.6 µM); in assay [6], 25 µg/mL (≈ 88.6 µM).

As to `CC(=O)N1N=C(c2ccccc2)CC1c1ccc(F)cc1` (stereo unspecified), the MIC turned out to be 12.5 µg/mL (≈ 44.3 µM) in assay [1]; 12.5 µg/mL (≈ 44.3 µM) in assay [2]; 25 µg/mL (≈ 88.6 µM) in assay [3]; 25 µg/mL (≈ 88.6 µM) in assay [4]; 50 µg/mL (≈ 177 µM) in assay [5]; 25 µg/mL (≈ 88.6 µM) in assay [6].

`COc1cc(OC)cc(C2CC(c3ccccc3)=NN2C(C)=O)c1` (stereo unspecified): the MIC is above 50 µg/mL in assay [1]; 25 µg/mL (≈ 77.1 µM) in assay [2]; 12.5 µg/mL (≈ 38.5 µM) in assay [3]; 25 µg/mL (≈ 77.1 µM) in assay [4]; 25 µg/mL (≈ 77.1 µM) in assay [5]; 25 µg/mL (≈ 77.1 µM) in assay [6].

As to `COc1cc(OC)cc(C2CC(c3ccc(C)c(C)c3)=NN2C(C)=O)c1` (stereo unspecified), the MIC was 25 µg/mL (≈ 70.9 µM) in assay [1]; 3.12 µg/mL (≈ 8.87 µM) in assay [2]; 12.5 µg/mL (≈ 35.5 µM) in assay [3]; above 50 µg/mL in assay [4]; 12.5 µg/mL (≈ 35.5 µM) in assay [5]; above 50 µg/mL in assay [6].

Regarding `COc1ccc(C2CC(c3ccccc3)=NN2C(C)=O)cc1` (stereo unspecified), the minimal inhibitory concentration (MIC) is above 50 µg/mL in assay [1]; 12.5 µg/mL (≈ 42.5 µM) in assay [2]; above 50 µg/mL in assay [3]; above 50 µg/mL in assay [4]; 50 µg/mL (≈ 170 µM) in assay [5]; 12.5 µg/mL (≈ 42.5 µM) in assay [6].

Regarding `CC(=O)N1N=C(c2ccccc2F)CC1c1ccc(F)cc1` (stereo unspecified), the MIC was above 50 µg/mL in assay [1]; 12.5 µg/mL (≈ 41.6 µM) in assay [2]; 25 µg/mL (≈ 83.2 µM) in assay [3]; 50 µg/mL (≈ 166 µM) in assay [4]; 50 µg/mL (≈ 166 µM) in assay [5]; above 50 µg/mL in assay [6].

Consider `CC(=O)N1N=C(c2ccc(Br)cc2)CC1c1ccc(F)cc1` (stereo unspecified), for which the MIC was 12.5 µg/mL (≈ 34.6 µM) in assay [1]; 3.12 µg/mL (≈ 8.65 µM) in assay [2]; 25 µg/mL (≈ 69.2 µM) in assay [3]; 12.5 µg/mL (≈ 34.6 µM) in assay [4]; 1.56 µg/mL (≈ 4.32 µM) in assay [5]; 1.56 µg/mL (≈ 4.32 µM) in assay [6].

Regarding `CC(=O)N1N=C(c2ccc(Br)cc2)CC1c1ccc(Br)cc1` (stereo unspecified), the MIC in assay [1] is 25 µg/mL (≈ 59.2 µM); in assay [2], 6.25 µg/mL (≈ 14.8 µM); in assay [3], 12.5 µg/mL (≈ 29.6 µM); in assay [4], 25 µg/mL (≈ 59.2 µM); in assay [5], 25 µg/mL (≈ 59.2 µM); in assay [6], 3.12 µg/mL (≈ 7.4 µM).

Consider `CC(=O)N1N=C(c2ccccc2F)CC1c1ccccc1Cl` (stereo unspecified), for which the MIC in assay [1] worked out at 12.5 µg/mL (≈ 39.5 µM); in assay [2], 12.5 µg/mL (≈ 39.5 µM); in assay [3], 6.25 µg/mL (≈ 19.7 µM); in assay [4], 12.5 µg/mL (≈ 39.5 µM); in assay [5] it was 25 µg/mL (≈ 78.9 µM); in assay [6], 12.5 µg/mL (≈ 39.5 µM).

Consider `CC(=O)N1N=C(c2ccc(Cl)c(Cl)c2)CC1c1ccc(C)cc1` (stereo unspecified), for which the minimal inhibitory concentration (MIC) is 25 µg/mL (≈ 72 µM) in assay [1]; 25 µg/mL (≈ 72 µM) in assay [2]; 6.25 µg/mL (≈ 18 µM) in assay [3]; above 50 µg/mL in assay [4]; 12.5 µg/mL (≈ 36 µM) in assay [5]; above 50 µg/mL in assay [6].

Take `CC(=O)N1N=C(c2ccc(Cl)cc2)CC1c1ccc(F)cc1` (stereo unspecified): the MIC in assay [1] was 25 µg/mL (≈ 78.9 µM); in assay [2], 12.5 µg/mL (≈ 39.5 µM); in assay [3] it was 12.5 µg/mL (≈ 39.5 µM); in assay [4], 25 µg/mL (≈ 78.9 µM); in assay [5], 1.56 µg/mL (≈ 4.93 µM); in assay [6], 12.5 µg/mL (≈ 39.5 µM).

Turning to `COc1cc(OC)cc(C2CC(c3ccccc3F)=NN2C(C)=O)c1` (stereo unspecified), the MIC was above 50 µg/mL in assay [1]; 12.5 µg/mL (≈ 36.5 µM) in assay [2]; 6.25 µg/mL (≈ 18.3 µM) in assay [3]; 12.5 µg/mL (≈ 36.5 µM) in assay [4]; 12.5 µg/mL (≈ 36.5 µM) in assay [5]; 25 µg/mL (≈ 73 µM) in assay [6].

Turning to `COc1cc(OC)cc(C2CC(c3ccc(Cl)cc3)=NN2C(C)=O)c1` (stereo unspecified), the MIC was above 50 µg/mL in assay [1]; 25 µg/mL (≈ 69.7 µM) in assay [2]; 6.25 µg/mL (≈ 17.4 µM) in assay [3]; 12.5 µg/mL (≈ 34.8 µM) in assay [4]; 50 µg/mL (≈ 139 µM) in assay [5]; 6.25 µg/mL (≈ 17.4 µM) in assay [6].

On to `CC(=O)N1N=C(c2ccc(Cl)c(Cl)c2)CC1c1ccc(F)cc1` (stereo unspecified), for which the MIC in assay [1] turned out to be 12.5 µg/mL (≈ 35.6 µM); in assay [2], 12.5 µg/mL (≈ 35.6 µM); in assay [3], 1.56 µg/mL (≈ 4.45 µM); in assay [4] it was 12.5 µg/mL (≈ 35.6 µM); in assay [5], 1.56 µg/mL (≈ 4.45 µM); in assay [6], 12.5 µg/mL (≈ 35.6 µM).

For the compound `COc1cc(OC)cc(C2CC(c3ccc(Cl)c(Cl)c3)=NN2C(C)=O)c1` (stereo unspecified), the MIC in assay [1] is 12.5 µg/mL (≈ 31.8 µM); in assay [2] it was 12.5 µg/mL (≈ 31.8 µM); in assay [3], 12.5 µg/mL (≈ 31.8 µM); in assay [4] it was above 50 µg/mL; in assay [5] it was 50 µg/mL (≈ 127 µM); in assay [6], 25 µg/mL (≈ 63.6 µM).

As for `CC(=O)N1N=C(c2ccc(Cl)cc2)CC1c1ccc(C)cc1` (stereo unspecified), the MIC was 12.5 µg/mL (≈ 40 µM) in assay [1]; 12.5 µg/mL (≈ 40 µM) in assay [2]; 6.25 µg/mL (≈ 20 µM) in assay [3]; 12.5 µg/mL (≈ 40 µM) in assay [4]; 25 µg/mL (≈ 79.9 µM) in assay [5]; 12.5 µg/mL (≈ 40 µM) in assay [6].

Turning to `CC(=O)N1N=C(c2ccc(C)c(C)c2)CC1c1ccccc1` (stereo unspecified), the MIC in assay [1] was above 50 µg/mL; in assay [2] it was 12.5 µg/mL (≈ 42.8 µM); in assay [3], above 50 µg/mL; in assay [4] it was above 50 µg/mL; in assay [5] it was 25 µg/mL (≈ 85.5 µM); in assay [6], 25 µg/mL (≈ 85.5 µM).

With `CC(=O)N1N=C(c2ccc(C)c(C)c2)CC1c1ccccc1Cl` (stereo unspecified), the MIC in assay [1] was above 50 µg/mL; in assay [2] it was 6.25 µg/mL (≈ 19.1 µM); in assay [3] it was above 50 µg/mL; in assay [4], 25 µg/mL (≈ 76.5 µM); in assay [5], 50 µg/mL (≈ 153 µM); in assay [6] it was 25 µg/mL (≈ 76.5 µM).

Take `CC(=O)N1N=C(c2ccccc2)CC1c1ccccc1Cl` (stereo unspecified): the MIC in assay [1] was 25 µg/mL (≈ 83.7 µM); in assay [2] it was 25 µg/mL (≈ 83.7 µM); in assay [3] it was 25 µg/mL (≈ 83.7 µM); in assay [4], above 50 µg/mL; in assay [5], 25 µg/mL (≈ 83.7 µM); in assay [6], above 50 µg/mL.

Consider `COc1ccc(C2=NN(C(C)=O)C(c3cc(OC)cc(OC)c3)C2)cc1` (stereo unspecified), for which the MIC stood at 6.25 µg/mL (≈ 17.6 µM) in assay [1]; 12.5 µg/mL (≈ 35.3 µM) in assay [2]; 6.25 µg/mL (≈ 17.6 µM) in assay [3]; 12.5 µg/mL (≈ 35.3 µM) in assay [4]; 50 µg/mL (≈ 141 µM) in assay [5]; 12.5 µg/mL (≈ 35.3 µM) in assay [6].

In the case of `CC(=O)N1N=C(c2ccc(Cl)c(Cl)c2)CC1c1ccccc1Cl` (stereo unspecified), the MIC in assay [1] worked out at 25 µg/mL (≈ 68 µM); in assay [2], 12.5 µg/mL (≈ 34 µM); in assay [3] it was 3.12 µg/mL (≈ 8.5 µM); in assay [4], 12.5 µg/mL (≈ 34 µM); in assay [5] it was 12.5 µg/mL (≈ 34 µM); in assay [6] it was 25 µg/mL (≈ 68 µM).

With `CC(=O)N1N=C(c2ccc(Br)cc2)CC1c1ccccc1Cl` (stereo unspecified), the MIC in assay [1] stood at 3.12 µg/mL (≈ 8.27 µM); in assay [2] it was 6.25 µg/mL (≈ 16.5 µM); in assay [3] it was 25 µg/mL (≈ 66.2 µM); in assay [4], 12.5 µg/mL (≈ 33.1 µM); in assay [5] it was 50 µg/mL (≈ 132 µM); in assay [6], 25 µg/mL (≈ 66.2 µM).

`CC(=O)N1N=C(c2ccc(C)c(C)c2)CC1c1ccc(F)cc1` (stereo unspecified): the minimal inhibitory concentration (MIC) in assay [1] stood at 12.5 µg/mL (≈ 40.3 µM); in assay [2], 6.25 µg/mL (≈ 20.1 µM); in assay [3], 25 µg/mL (≈ 80.5 µM); in assay [4], 25 µg/mL (≈ 80.5 µM); in assay [5] it was 12.5 µg/mL (≈ 40.3 µM); in assay [6] it was 1.56 µg/mL (≈ 5.03 µM).

For the compound `CC(=O)N1N=C(c2ccc(Br)cc2)CC1c1ccc(Cl)cc1` (stereo unspecified), the MIC in assay [1] was determined as 12.5 µg/mL (≈ 33.1 µM); in assay [2], 3.12 µg/mL (≈ 8.27 µM); in assay [3], 25 µg/mL (≈ 66.2 µM); in assay [4], 25 µg/mL (≈ 66.2 µM); in assay [5], 6.25 µg/mL (≈ 16.5 µM); in assay [6], 3.12 µg/mL (≈ 8.27 µM).
